The target in test [1] is T1, human S1P1 (EDG-1) (Homo sapiens, UniProt P21453). Description: Inhibition of binding of [33P]-S1P to S1P1, CHO membrane fractions. To be noted: [33P]-S1P binding, membrane fractions of CHO cells overexpressing human S1P1. On the procedure:
(§1) Measurement of the Inhibitory Action of the Compound of the Present Invention on Binding of [^33P]-S1P to S1P5 (EDG-8)
(§2) A reaction was carried out in a 96-well microplate by using membrane fractions of Chinese hamster ovary (CHO) cells each of which was made to overexpress human S1P1 (EDG-1) or human S1P5 gene respectively, in an amount of the membrane fraction of 1 mg protein/mL. To each of the wells, 100 μL of a vehicle (DMSO) solution or a ligand solution at a two-fold concentration diluted with Binding Buffer (50 mmol/L, Tris pH 7.5, 5 mmol/L, MgCl2, 0.5% BSA and Complete EDTA free (1 tablet/50 mL)) and […] of 0.16 nmol/L [^33P]-S1P (manufactured by American Radiolabeled Chemicals, Inc.) diluted with Binding Buffer were added, and thereafter, each of membrane fraction solutions (50 μL) was added and the reaction was carried out at room temperature for 60 minutes. After the reaction, suction filtration was carried out by using a 96-well UNIFILTER, and the 96-well microplate was washed with Wash Buffer (50 mmol/L, Tris pH 7.5, 0.5% BSA) (150 mL), and thereafter, was dried at 60° C. for 45 minutes. MicroScint (trade name) 20 (50 μL/well) was added and the plate was covered with TopSeal-A, and thereafter, the radioactivity was measured by using TopCount (manufactured by PerkinElmer Inc.).

Test [2] deals with T2, human S1P5 (EDG-8) (Homo sapiens, UniProt Q9H228). Description: Inhibition of binding of [33P]-S1P to S1P5, CHO membrane fractions. To be noted: for IC50: [33P]-S1P binding, membrane fractions of CHO cells overexpressing human S1P5. On the procedure: as §1, §2
T2 sequence (Q9H228 whole entry): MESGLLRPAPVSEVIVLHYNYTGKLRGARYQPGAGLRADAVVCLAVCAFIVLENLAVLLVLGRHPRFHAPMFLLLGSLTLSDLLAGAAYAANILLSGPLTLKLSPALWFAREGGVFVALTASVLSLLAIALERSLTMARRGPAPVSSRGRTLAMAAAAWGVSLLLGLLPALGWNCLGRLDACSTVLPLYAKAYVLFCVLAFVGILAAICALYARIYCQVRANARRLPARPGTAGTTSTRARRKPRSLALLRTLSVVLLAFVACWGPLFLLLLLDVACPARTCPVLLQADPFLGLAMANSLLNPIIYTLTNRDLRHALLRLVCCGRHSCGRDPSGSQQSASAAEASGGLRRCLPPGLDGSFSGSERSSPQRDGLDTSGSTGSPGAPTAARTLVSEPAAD
In test [3] the target is T1, human S1P1 (EDG-1). Description: S1P receptor agonist activity by monitoring intracellular cyclic AMP, CHO cells overexpressing S1P1. It counts as cell-based. To be noted: forskolin-stimulated CHO cells overexpressing human S1P1, read-out: EC 50 value with regard to S1P1 receptor. Here is the method:
(§3) Evaluation of S1P Receptor Agonist Activities of the Compound of the Present Invention by Monitoring the Concentration of Produced Intracellular Cyclic AMP
(§4) CHO cells which were made to overexpress either human S1P1 (EDG-1) or human S1P5 (EDG-8) gene respectively were cultured in Ham's F12 Medium (manufactured by Gibco-BRL) containing 10% FBS (fetal bovine serum), penicillin/streptomycin and geneticin (0.25 mg/mL). The medium was removed from the cultured cells, the cultured cells were washed once with phosphate-buffered saline, and the cultured cells were treated with a vehicle (DMSO) solution or a compound solution each of which was diluted with Buffer (Hanks' balanced salt solution containing 20 mmol/L HEPES, 0.1 or 0.2% BSA, 1 mmol/L IBMX and 50 μmol/L forskolin) at 37° C. for 30 minutes. Thereafter, the cultured cells were washed once with phosphate-buffered saline. After lysing the cells, the concentration of cyclic AMP in the cell lysate were measured by using cAMP Assay Kit (GE Healthcare).

Test [4] has as its target T2, human S1P5 (EDG-8). Description: S1P receptor agonist activity by monitoring intracellular cyclic AMP, CHO cells overexpressing S1P5. It counts as cell-based. Particulars: forskolin-stimulated CHO cells overexpressing human S1P5, read-out: EC 50 value with regard to S1P5 receptor. On the procedure: as §3, §4

Each structure is given as a SMILES string. A value given as a limit tells only on which side of the number the result lay.

T1 sequence (P21453 whole entry): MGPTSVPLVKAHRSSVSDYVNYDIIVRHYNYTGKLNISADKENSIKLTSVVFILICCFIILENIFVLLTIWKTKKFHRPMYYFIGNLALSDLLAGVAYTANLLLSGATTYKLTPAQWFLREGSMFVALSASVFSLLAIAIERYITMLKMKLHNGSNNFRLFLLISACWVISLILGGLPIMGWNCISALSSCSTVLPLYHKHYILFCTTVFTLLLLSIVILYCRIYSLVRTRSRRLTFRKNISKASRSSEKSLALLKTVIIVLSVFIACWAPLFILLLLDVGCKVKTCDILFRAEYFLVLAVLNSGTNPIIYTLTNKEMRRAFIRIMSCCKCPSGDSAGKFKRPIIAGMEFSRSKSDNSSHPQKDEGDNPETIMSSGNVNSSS

For orientation: IC50 means the concentration that gives 50% inhibition. A lower IC50 goes with higher potency. Turning to `CCCCc1ccc(Oc2ccc3c(c2)CCC(CN2CC(C(=O)O)C2)=C3C)cc1.Cl` [Comparative Compound A, 1-{[6-(4-butylphenoxy)-1-methyl-3,4-dihydronaphthalen-2-yl]methyl}azetidine-3-carboxylic acid hydrochloride, reference compound], the IC50 worked out at 475 nM at human S1P1 (EDG-1) [1] and 76 nM at human S1P5 (EDG-8) [2]. The “balance of an S1P5 receptor agonist activity against an S1P1 receptor agonist activity” value at human S1P5 (EDG-8) [2] (conclusion in words from binding IC50 values S1P1 vs S1P5) was “had both S1P1 and S1P5 receptor agonist activities”.

Consider `O=C(O)C1CN(CC2=Cc3ccc(OC4CCCCC4)cc3CC2)C1` [Example 9 (2), 1-{[6-(Cyclohexyloxy)-3,4-dihydro-2-naphthalenyl]methyl}-3-azetidinecarboxylic acid], for which the results for the IC50 at human S1P1 (EDG-1) [1] and at human S1P5 (EDG-8) [2] were more than 10000 nM and 57.2 nM, respectively.

`CC1=C(CN2CC(C(=O)O)C2)CCc2cc(-c3ccccc3)ccc21` [Example 14 (1), 1-[(1-Methyl-6-phenyl-3,4-dihydro-2-naphthalenyl)methyl]-3-azetidinecarboxylic acid]: the IC50 on human S1P1 (EDG-1) [1] is more than 10000 nM; on human S1P5 (EDG-8) [2], 22.4 nM.

With `CC1=C(CN2CC(C(=O)O)C2)CCc2cc(-c3ccccn3)ccc21` [Example 14 (3), 1-{[1-Methyl-6-(2-pyridinyl)-3,4-dihydro-2-naphthalenyl]methyl}-3-azetidinecarboxylic acid], the figures for the IC50 on human S1P1 (EDG-1) [1] and at human S1P5 (EDG-8) [2] were more than 10000 nM and 67.2 nM, respectively.

As to `CC1Cc2cc(OC3CCCCC3)ccc2C=C1CN1CC(C(=O)O)C1` (stereo not shown) [Example 21, 1-{[6-(Cyclohexyloxy)-3-methyl-3,4-dihydro-2-naphthalenyl]methyl}-3-azetidinecarboxylic acid], the IC50 on human S1P1 (EDG-1) [1] is more than 10000 nM; on human S1P5 (EDG-8) [2], 16 nM. Moreover, the EC50 on human S1P1 (EDG-1) [3] was found to be 9990 nM; on human S1P5 (EDG-8) [4], 0.2 nM.

(Values after patent US11471436B2, “Dihydronaphthalene derivative” (ONO PHARMACEUTICAL CO., LTD., priority 2014, dated 2022).)
